Some results are limits rather than exact numbers.

The first assay concerns IL-1β production in PMA-differentiated THP-1 cells. In words: IL-1β production in PMA-differentiated THP-1 cells stimulated with gramicidin (hTHP-1 assay, 2% fetal bovine serum; Procedures 1-3). The class given is cell-based, human. As to conditions: Homo sapiens, THP-1, Table B1; hTHP-1 assay containing 2% fetal bovine serum, gramicidin stimulation, IL-1β readout; read-out: hTHP-1 IC50 (average). How it is done: The following protocol is suitable for testing the activity of the compounds disclosed herein.
Procedure 1: IL-1β Production in PMA-Differentiated THP-1 Cells Stimulated with Gramicidin.
THP-1 cells were purchased from the American Type Culture Collection and sub-cultured according to instructions from the supplier. Cells were cultured in complete RPMI 1640 (containing 10% heat inactivated FBS, penicillin (100 units/ml) and streptomycin (100 μg/ml)), and maintained in log phase prior to experimental setup. Prior to the experiment, compounds were dissolved in dimethyl sulfoxide (DMSO) to generate a 30 mM stock. The compound stock was first pre-diluted in DMSO to 3, 0.34, 0.042 and 0.0083 mM intermediate concentrations and subsequently spotted using Echo550 liquid handler into an empty 384-well assay plate to achieve desired final concentration (e.g. 100, 33, 11, 3.7, 1.2, 0.41, 0.14, 0.046, 0.015, 0.0051, 0.0017 μM). DMSO was backfilled in the plate to achieve a final DMSO assay concentration of 0.37%. The plate was then sealed and stored at room temperature until required.
THP-1 cells were treated with PMA (Phorbol 12-myristate 13-acetate) (20 ng/ml) for 16-18 hours. On the day of the experiment the media was removed and adherent cells were detached with trypsin for 5 minutes. Cells were then harvested, washed with complete RPMI 1640, spun down, and resuspended in RPMI 1640 (containing 2% heat inactivated FBS, penicillin (100 units/ml) and streptomycin (100 μg/ml). The cells were plated in the 384-well assay plate containing the spotted compounds at a density of 50,000 cells/well (final assay volume 50 μl). Cells were incubated with compounds for 1 hour and then stimulated with gramicidin (5 μM) (Enzo) for 2 hours. Plates were then centrifuged at 340 g for 5 min. Cell free supernatant (40 μL) was collected using a 96-channel PlateMaster (Gilson) and the production of IL-1β was evaluated by HTRF (cisbio). The plates were incubated for 18 h at 4° C. and read using the preset HTRF program (donor emission at 620 nm, acceptor emission at 668 nm) of the SpectraMax i3x spectrophotometer (Molecular Devices, software SoftMax 6). A vehicle only control and a dose titration of CRID3 (100-0.0017 μM) were run concurrently with each experiment.
Procedure 2: IL-1β Production in PMA-Differentiated THP-1 Cells Stimulated with Gramicidin.
THP-1 cells were purchased from the American Type Culture Collection and sub-cultured according to instructions from the supplier. Prior to experiments, cells were cultured in complete RPMI 1640 (containing 10% heat inactivated FBS, penicillin (100 units/ml) and streptomycin (100 μg/ml)), and maintained in log phase prior to experimental setup. Prior to the experiment THP-1 were treated with PMA (Phorbol 12-myristate 13-acetate) (20 ng/ml) for 16-18 hours. Compounds were dissolved in dimethyl sulfoxide (DMSO) to generate a 30 mM stock. On the day of the experiment the media was removed and adherent cells were detached with trypsin for 5 minutes. Cells were then harvested, washed with complete RPMI 1640, spun down, resuspended in RPMI 1640 (containing 2% heat inactivated FBS, penicillin (100 units/ml) and streptomycin (100 μg/ml) . The cells were plated in a 384-well plate at a density of 50,000 cells/well (final assay volume 50 μl). Compounds were first dissolved in assay medium to obtain a 5× top concentration of 500 μM. 10 step dilutions (1:3) were then undertaken in assay medium containing 1.67% DMSO. 5× compound solutions were added to the culture medium to achieve desired final concentration (e.g. 100, 33, 11, 3.7, 1.2, 0.41, 0.14, 0.046, 0.015, 0.0051, 0.0017 μM). Final DMSO concentration was at 0.37%. Cells were incubated with compounds for 1 hour and then stimulated with gramicidin (5 μM) (Enzo) for 2 hours. Plates were then centrifuged at 340 g for 5 min. Cell free supernatant (40 μL) was collected using a 96-channel PlateMaster (Gilson) and the production of IL-1β was evaluated by HTRF (cisbio). […]
The term IC50 denotes the concentration needed to halve the response being measured. On to `C[C@@](O)(CO)c1cc(F)c([S@](N)(=O)=NC(=O)Nc2c3c(c(C#N)c4c2CCC4)CCC3)s1` (single isomer, unassigned) [Compound 411a], for which the half-maximal inhibitory concentration (IC50) fell in the range of 0.04 to 0.2 µM.

As to `CNCc1cc(F)c(S(N)(=O)=NC(=O)Nc2c3c(cc4c2CCC4)CCC3)s1` (single isomer, unassigned) [Compound 412a], the IC50 lay in the range of 0.04 to 0.2 µM. Still for that read-out and setting: with `CN1CCc2cc(S(N)(=O)=NC(=O)Nc3c4c(cc5c3CCC5)CCC4)sc2C1` (single isomer, unassigned) [Compound 413a] the figure was 0.04 to 0.2 µM; with `Cc1oc(S(N)(=O)=NC(=O)Nc2c3c(cc4c2CCC4)CCC3)cc1C(C)(C)O` (single isomer, unassigned) [Example 3], 0.2 to 1 µM; with `Cc1oc(S(N)(=O)=NC(=O)Nc2c3c(cc4c2CCC4C)CCC3)cc1C(C)(C)O` (single isomer, unassigned) [Example 125], 0.04 to 0.2 µM. `C#CCCC(=O)N(C)Cc1ccc(S(N)(=O)=NC(=O)Nc2c3c(cc4c2CCC4)CCC3)cc1` (single isomer, unassigned) [Example 312, (S) or (R)-N-(4-(N′-((1,2,3,5,6,7-hexahydro-s-indacen-4-yl)carbamoyl)-sulfamidimidoyl)benzyl)-N-methylpent-4-ynamide]: the IC50 lay within 1 to 5 µM.

On to `CC1CCc2c1cc1c(c2NC(=O)N=[S@@](N)(=O)c2cnc(C(C)(C)O)s2)CCC1` (single isomer, unassigned) [Example 323, (R, R) or (R, S)-2-(2-hydroxypropan-2-yl)-N′-((1-methyl-1,2,3,5,6,7-hexahydro-s-indacen-4-yl)carbamoyl)thiazole-5-sulfonimidamide], for which the IC50 lay within 0.04 to 0.2 µM.

With `CCc1ccc2cn(C)nc2c1NC(=O)N=S(N)(=O)c1ncc(C(C)(C)O)s1` (single isomer, unassigned) [Example 329, (S) or (R)-N′-((6-ethyl-2-methyl-2H-indazol-7-yl)-carbamoyl)-5-(2-hydroxy-propan-2-yl)thiazole-2-sulfonimidamide], the IC50 was more than 30 µM.

The same assay, now with this note: Homo sapiens, THP-1, Table B3; hTHP-1 assay containing 2% fetal bovine serum, gramicidin stimulation, IL-1β readout; read-out: hTHP-1 IC50.
Consider `C[C@](O)(COCCOCc1ccccc1)c1ccc([S@@](N)(=O)=NC(=O)Nc2c3c(cc4c2CCC4)CCC3)s1` (racemic) [Example 746, (S)-5-((S)-1-(2-(benzyloxy)ethoxy)-2-hydroxypropan-2-yl)-N′-((1,2,3,5,6,7-hexahydro-s-indacen-4-yl)carbamoyl)thiophene-2-sulfonimidamide], for which the IC50 was 0.2 to 1 µM. On to `C[C@](O)(COCCOCc1ccccc1)c1ccc(S(N)(=O)=NC(=O)Nc2c3c(cc4c2CCC4)CCC3)s1` (mixture of isomers) [Example 747, (S) and (R)-5-((S)-1-(2-(benzyloxy)ethoxy)-2-hydroxypropan-2-yl)-N′-((1,2,3,5,6,7-hexahydro-s-indacen-4-yl)carbamoyl)thiophene-2-sulfonimidamide], for which the IC50 was 0.2 to 1 µM.

The assay is the same for the next values; noted with them: Homo sapiens, THP-1, hTHP-1 assay containing 2% fetal bovine serum, Table B2, given as bound; read-out: IC50.
Regarding `CC(OC(F)F)c1ccc(S(N)(=O)=NC(=O)Nc2c3c(cc4c2CCC4)CCC3)cc1` (mixture of isomers) [Example 639, (R,S) and (S,S)-4-(1-(difluoromethoxy)ethyl)-N′-((1,2,3,5,6,7-hexahydro-s-indacen-4-yl)carbamoyl) benzenesulfonimidamide (mixture of two isomers)], the IC50 is more than 30 µM.

The same assay, now with this note: Table B1; hTHP-1 assay containing 2% fetal bovine serum, gramicidin stimulation, IL-1β readout; read-out: hTHP-1 IC50 (average).
As to `CC(C)(O)c1ncc(S(N)(=O)=NC(=O)Nc2c3c(cc4c2CCC4)CCC3)s1` (single isomer, unassigned) [Example 5], the IC50 was in the range of 0.2 to 1 µM. Still for that read-out and setting: the value for `CC(C)(O)c1ncc(S(N)(=O)=NC(=O)Nc2c3c(cc4c2CCC4)CCC3)s1` (single isomer, unassigned) [Example 6] was 0.008 to 0.04 µM. Same read-out and setting: the value for `CC(C)(O)c1ccc(S(N)(=O)=NC(=O)Nc2c3c(cc4c2CCC4)CCC3)c(F)c1` (single isomer, unassigned) [Example 87] was 0.04 to 0.2 µM; that for `CC(C)(O)c1csc(S(N)(=O)=NC(=O)Nc2c3c(c(Cl)c4c2CCC4)CCC3)c1` (single isomer, unassigned) [Example 89] was 0.008 to 0.04 µM. On the same count and under the same terms, the value for `CC(C)c1cc(C#N)c(F)c(C(C)C)c1NC(=O)N=S(N)(=O)c1cnc(C(C)(C)O)s1` (single isomer, unassigned) [Example 91] was 0.04 to 0.2 µM; that for `CC(C)n1ccc(S(N)(=O)=NC(=O)Nc2c3c(cc4c2CCC4)CCC3)n1` (single isomer, unassigned) [Example 93] was 0.04 to 0.2 µM. In the case of `CNS(=O)(=NC(=O)Nc1c2c(c(F)c3c1CCC3)CCC2)c1cc(C(C)(C)O)cs1` (single isomer, unassigned) [Example 181], the IC50 lay within 5 to 30 µM.

Consider `CC(C)c1cc(C#N)cc(C(C)C)c1NC(=O)N=S(N)(=O)c1cc(C(C)(C)O)cc(C(C)(C)O)c1` (single isomer, unassigned) [Example 198, N′-((4-cyano-2,6-diisopropylphenyl)carbamoyl)-3,5-bis(2-hydroxypropan-2-yl)benzenesulfonimidamide], for which the IC50 was in the range of 5 to 30 µM. The same measure, in the same setting: with `C#CCCC(=O)N(C)Cc1ccc(S(N)(=O)=NC(=O)Nc2c3c(cc4c2CCC4)CCC3)cc1` (single isomer, unassigned) [Example 313, (R) or (S)-N-(4-(N′-((1,2,3,5,6,7-hexahydro-s-indacen-4-yl)carbamoyl)-sulfamidimidoyl)benzyl)-N-methylpent-4-ynamide] the figure was 1 to 5 µM; with `CCc1ccc2cn(C)nc2c1NC(=O)N=S(N)(=O)c1ncc(C(C)(C)O)s1` (single isomer, unassigned) [Example 330, (R) or (S)-N′-((6-ethyl-2-methyl-2H-indazol-7-yl)-carbamoyl)-5-(2-hydroxy-propan-2-yl)thiazole-2-sulfonimidamide], more than 30 µM. As to `CC(C)(O)c1ncc(S(N)(=O)=NC(=O)Nc2c3c(cc4c2CCC4=O)CCC3)s1` (single isomer, unassigned) [Example 336, (R) or (S)-2-(2-Hydroxy-propan-2-yl)-N′-((1-oxo-1,2,3,5,6,7-hexahydro-s-indacen-4-yl)carbamoyl)-thiazole-5-sulfonimidamide], the IC50 lay in the range of 0.2 to 1 µM.

Staying with this assay, now noted: hTHP-1 assay containing 2% fetal bovine serum, Table B2, class symbols; read-out: IC50.
Turning to `CC(O)(CO)c1ncc(S(N)(=O)=NC(=O)Nc2c3c(c(C#N)c4c2CCC4)CCC3)s1` (mixture of isomers) [Example 635, (R,S) and (S,S)-N′-((8-cyano-1,2,3,5,6,7-hexahydro-indacen-4-yl)carbamoyl)-2-(1,2-dihydroxypropan-2-yl)thiazole-5-sulfonimidamide (mixture of two isomers)], the IC50 was 5 to 30 µM. Still for that read-out and setting: the value for `NS(=O)(=NC(=O)Nc1c2c(cc3c1CCC3)CCC2)c1ccc(C2CCCN2)cc1` (mixture of isomers) [Example 649, (S,R) or (R,R) and (S,S) or (R,S)-N′-((1,2,3,5,6,7-hexahydro-s-indacen-4-yl)carbamoyl)-4-(pyrrolidin-2-yl) benzenesulfonimidamide (mixture of two isomers)] was 5 to 30 µM.
